Assay results taken from PubChem BioAssay AID330 (DTP/NCI, 2004).
Values joined by “and” are separate entries in the source; they are usually repeats but may differ in a detail not shown here. Equal values may be shown once. Toxic doses and inconclusive results are not listed. How the source made its calls: active means survival T/C of 150% or more; inactive means T/C below 125% in these data.

Test system: P388 leukemia ip, CD2F1 mice, survival T/C
Experiment: NCI In Vivo Anticancer Drug Screen. Data for tumor model P388 Leukemia (intraperitoneal) in CD2F1 (CDF1) mice
Conditions: endpoint: median survival time, higher = longer survival
Procedure, shortened: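 Mice carrying the transplanted tumor received test compound or vehicle. Survival was recorded in each group, and the value is the treated-group measurement divided by that of the vehicle-treated control group.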

[1] = dose: 3.13 mg/kg/injection, schedule: Q04DX003 (ip), vehicle: water
[2] = dose: 50.0 mg/kg/injection, schedule: Q01DX009 (ip), vehicle: saline with Tween-80
[3] = dose: 100.0 mg/kg/injection, schedule: Q01DX009 (ip), vehicle: saline with Tween-80
[4] = dose: 100.0 mg/kg/injection, schedule: Q01DX001 (ip), vehicle: Klucel (hydroxypropylcellulose) (HPC)
[5] = dose: 200.0 mg/kg/injection, schedule: Q01DX001 (ip), vehicle: Klucel (hydroxypropylcellulose) (HPC)
[6] = dose: 200.0 mg/kg/injection, schedule: Q01DX009 (ip), vehicle: saline with Tween-80
[7] = dose: 50.0 mg/kg/injection, schedule: Q01DX009 (ip), vehicle: Klucel (hydroxypropylcellulose) (HPC)
[8] = dose: 100.0 mg/kg/injection, schedule: Q01DX009 (ip), vehicle: Klucel (hydroxypropylcellulose) (HPC)
[9] = dose: 200.0 mg/kg/injection, schedule: Q01DX009 (ip), vehicle: Klucel (hydroxypropylcellulose) (HPC)
[10] = dose: 25.0 mg/kg/injection, schedule: Q01DX009 (ip), vehicle: Klucel (hydroxypropylcellulose) (HPC)
[11] = dose: 25.0 mg/kg/injection, schedule: Q01DX009 (ip), vehicle: saline with Tween-80

Measured: T/C

CCCCCCCCCCCC[N+]1(CC)CCCCCC1
inactive: dose: 0.78 mg/kg/injection, schedule: Q01DX009 (ip), vehicle: saline 113 % of control | dose: 1.56 mg/kg/injection, schedule: Q01DX009 (ip), vehicle: saline 111 % of control | dose: 3.12 mg/kg/injection, schedule: Q01DX009 (ip), vehicle: saline 92 % of control

COc1c2c(cc3c1-c1c(cc4c(c1OC)OCO4)CC(C)C(C)C3)OCO2 (stereo not drawn)
inactive: dose: 13.75 mg/kg/injection, schedule: Q01DX005 (ip), vehicle: Klucel (hydroxypropylcellulose) (HPC) 95 % of control | dose: 27.5 mg/kg/injection, schedule: Q01DX005 (ip), vehicle: Klucel (hydroxypropylcellulose) (HPC) 98 % of control | dose: 55.0 mg/kg/injection, schedule: Q01DX005 (ip), vehicle: Klucel (hydroxypropylcellulose) (HPC) 98 % of control | dose: 110.0 mg/kg/injection, schedule: Q01DX005 (ip), vehicle: Klucel (hydroxypropylcellulose) (HPC) 90 % of control

C1=C[N-]c2c3c(ccc2=C1)=CC=C[N-]3.N#[O+].O.O=N[O-].O=N[O-].[Ru+2]
inactive: [1] 107 % of control | dose: 12.5 mg/kg/injection, schedule: Q04DX003 (ip), vehicle: water 121 % of control

OCCN1OCCCC1c1ccccc1 (stereo not drawn)
inactive: [2] 94 % of control | [3] 92 % of control

CCN(CC)C(=O)OC1c2ccccc2C2CC1c1ccccc1C2O (stereo not drawn)
inactive: dose: 100.0 mg/kg/injection, schedule: Q04DX003 (ip), vehicle: Klucel (hydroxypropylcellulose) (HPC) 97 % of control | dose: 200.0 mg/kg/injection, schedule: Q04DX003 (ip), vehicle: Klucel (hydroxypropylcellulose) (HPC) 102 % of control | dose: 400.0 mg/kg/injection, schedule: Q04DX003 (ip), vehicle: Klucel (hydroxypropylcellulose) (HPC) 89 % of control

N#CC(N)C(F)c1ccccc1 (stereo not drawn)
inactive: [4] 100 % of control | [5] 101 % of control | dose: 400.0 mg/kg/injection, schedule: Q01DX001 (ip), vehicle: Klucel (hydroxypropylcellulose) (HPC) 101 % of control

COC(=O)c1ccc(SCCC(C)=O)cc1
inactive: [2] 99 % of control | [3] 106 % of control | [6] 101 % of control

COc1ccc(CCN2C(=O)C(=O)N(c3ccc(Cl)c(Cl)c3)C2=O)cc1OC
inactive: [7] 102 % of control | [8] 97 % of control | [9] 103 % of control

C=CC1(OC)CC1CO (stereo not drawn)
inactive: dose: 25.0 mg/kg/injection, schedule: Q01DX001 (ip), vehicle: Klucel (hydroxypropylcellulose) (HPC) 99 % of control | dose: 50.0 mg/kg/injection, schedule: Q01DX001 (ip), vehicle: Klucel (hydroxypropylcellulose) (HPC) 102 % of control | [4] 91 % of control and 93 % of control | [5] 95 % of control

CC[C@@]1(O)C[C@H](OC2CC(N)C(O)C(C)O2)c2c(O)c3c(c(O)c2[C@H]1C(=O)OC)C(=O)c1cccc(O)c1C3=O (stereo partly drawn)
inactive: dose: 1.0 mg/kg/injection, schedule: Q01DX009 (ip), vehicle: water 115 % of control | dose: 2.0 mg/kg/injection, schedule: Q01DX009 (ip), vehicle: water 116 % of control | dose: 2.3 mg/kg/injection, schedule: Q01DX009 (ip), vehicle: water 123 % of control | dose: 12.5 mg/kg/injection, schedule: Q01DX001 (ip), vehicle: water 116 % of control | dose: 16.0 mg/kg/injection, schedule: Q01DX009 (ip), vehicle: water 86 % of control
active: dose: 25.0 mg/kg/injection, schedule: Q01DX001 (ip), vehicle: water 150 % of control

CCOC(=O)C1=C(N)CCC2(C1)c1ccccc1-c1ccccc12
inactive: dose: 100.0 mg/kg/injection, schedule: Q01DX001 (ip), vehicle: saline with Tween-80 97 % of control | dose: 200.0 mg/kg/injection, schedule: Q01DX001 (ip), vehicle: saline with Tween-80 103 % of control | dose: 400.0 mg/kg/injection, schedule: Q01DX001 (ip), vehicle: saline with Tween-80 93 % of control

O=[N+]([O-])c1cnc[nH]1
inactive: [10] 105 % of control | [7] 100 % of control and 101 % of control | [8] 100 % of control and 105 % of control | [9] 99 % of control and 100 % of control | dose: 360.0 mg/kg/injection, schedule: Q01DX001 (ip), vehicle: saline with Tween-80 95 % of control | dose: 600.0 mg/kg/injection, schedule: Q01DX001 (ip), vehicle: saline with Tween-80 100 % of control and 92 % of control | dose: 1000.0 mg/kg/injection, schedule: Q01DX001 (ip), vehicle: saline with Tween-80 99 % of control and 106 % of control

O=C1C=CC(=O)c2c(O)c3c(c(O)c21)C[C@H](O)[C@H](O)[C@@H]3O
inactive: dose: 1.56 mg/kg/injection, schedule: Q04DX003 (ip), vehicle: water 98 % of control | [1] 92 % of control | dose: 6.25 mg/kg/injection, schedule: Q04DX003 (ip), vehicle: water 102 % of control

[O-][N+]12CCCCC1C1CC(C2)C2CCCC(c3ccccc3)N2C1 (stereo not drawn)
inactive: dose: 12.5 mg/kg/injection, schedule: Q01DX009 (ip), vehicle: Klucel (hydroxypropylcellulose) (HPC) 101 % of control and 105 % of control and 116 % of control | [10] 103 % of control and 112 % of control and 114 % of control

COC(=O)c1c(-c2ccccc2)c(-c2ccccc2)n(-c2ccccc2)c1/N=C/N(C)C
inactive: [2] 97 % of control | [3] 90 % of control | [6] 90 % of control

CC1CC2OC(/C=C/C=C/C=C/C=C\C=C\C(O)=C3/C(=O)C(C(C)C)N(C)C3=O)C(O)C2O1 (stereo not drawn)
inactive: dose: 310.0 micrograms/kg/injection, schedule: Q01DX005 (ip), vehicle: saline with Tween-80 99 % of control | dose: 625.0 micrograms/kg/injection, schedule: Q01DX005 (ip), vehicle: saline with Tween-80 94 % of control | dose: 1250.0 micrograms/kg/injection, schedule: Q01DX005 (ip), vehicle: saline with Tween-80 101 % of control | dose: 2500.0 micrograms/kg/injection, schedule: Q01DX005 (ip), vehicle: saline with Tween-80 99 % of control | dose: 5000.0 micrograms/kg/injection, schedule: Q01DX005 (ip), vehicle: saline with Tween-80 99 % of control

Nc1nc2[nH]c(=O)cnc2c(=O)[nH]1
inactive: dose: 12.5 mg/kg/injection, schedule: Q01DX009 (ip), vehicle: saline with Tween-80 107 % of control | [11] 107 % of control | [2] 108 % of control | dose: 50.0 mg/kg/injection, schedule: Q01DX009 (ip), vehicle: suspension in saline 106 % of control | dose: 100.0 mg/kg/injection, schedule: Q01DX009 (ip), vehicle: suspension in saline 91 % of control | dose: 200.0 mg/kg/injection, schedule: Q01DX009 (ip), vehicle: suspension in saline 107 % of control | dose: 300.0 mg/kg/injection, schedule: Q01DX009 (ip), vehicle: saline 91 % of control

COC(=O)NCN(Cc1ccccc1)C(=O)CCCCCN
inactive: dose: 60.0 mg/kg/injection, schedule: Q01DX005 (ip), vehicle: saline with Tween-80 104 % of control | dose: 120.0 mg/kg/injection, schedule: Q01DX005 (ip), vehicle: saline with Tween-80 100 % of control | dose: 240.0 mg/kg/injection, schedule: Q01DX005 (ip), vehicle: saline with Tween-80 98 % of control

O=C1Nc2ncnc(Cl)c2Cc2ccccc21
inactive: [2] 100 % of control | [3] 104 % of control | [6] 104 % of control

CCCN(CCC)c1cc(=O)nc2ccccn12
inactive: dose: 60.0 mg/kg/injection, schedule: Q01DX005 (ip), vehicle: saline 100 % of control | dose: 120.0 mg/kg/injection, schedule: Q01DX005 (ip), vehicle: saline 106 % of control | dose: 240.0 mg/kg/injection, schedule: Q01DX005 (ip), vehicle: saline 106 % of control

Cc1nc2sccc2c(=O)n1C
inactive: dose: 50.0 mg/kg/injection, schedule: Q01DX005 (ip), vehicle: Klucel (hydroxypropylcellulose) (HPC) 97 % of control | dose: 100.0 mg/kg/injection, schedule: Q01DX005 (ip), vehicle: Klucel (hydroxypropylcellulose) (HPC) 98 % of control | dose: 200.0 mg/kg/injection, schedule: Q01DX005 (ip), vehicle: Klucel (hydroxypropylcellulose) (HPC) 103 % of control

CN(C)c1ccc(/C=N/NC(=O)CNC(=O)n2ccnc2)cc1
inactive: dose: 50.0 mg/kg/injection, schedule: Q01DX005 (ip), vehicle: saline with Tween-80 99 % of control | dose: 100.0 mg/kg/injection, schedule: Q01DX005 (ip), vehicle: saline with Tween-80 94 % of control | dose: 200.0 mg/kg/injection, schedule: Q01DX005 (ip), vehicle: saline with Tween-80 94 % of control

CN(CC[n+]1cccc(C(N)=O)c1)N=O
inactive: dose: 100.0 mg/kg/injection, schedule: Q01DX001 (ip), vehicle: saline 108 % of control | dose: 200.0 mg/kg/injection, schedule: Q01DX001 (ip), vehicle: saline 100 % of control | dose: 400.0 mg/kg/injection, schedule: Q01DX001 (ip), vehicle: saline 107 % of control

O=C(O)/C=C\C(=O)OCc1ccc(Cl)cc1Cl
inactive: [11] 86 % of control | [2] 90 % of control
